{
  "source": "paper PMC8397403",
  "about": "“Physiologically Based Pharmacokinetic Modeling of Transporter-Mediated Hepatic Disposition of Imaging Biomarker Gadoxetate in Rats” (Molecular Pharmaceutics, 2021)",
  "key": {"[1]": {"test": "Bottom-up IVIVE of gadoxetate transporter kinetic data / PBPK model", "set-up": "species or system rat", "description": "IVIVE of gadoxetate CLactive,u and CLpassive,u was performed by scaling these parameters to in vivo values (CLactive,u,in vivo and CLpassive,u,in vivo; mL/min/kg body weight) using a hepatocellularity of 120 × 10^6 cells/g liver,[34] and a liver weight (wliver) of 40 g/kg body weight,[38] as in eq 3. [drawing 3] 3\n(§1) A reduced PBPK model was developed to describe the PK of gadoxetate in rats; a permeability-limited liver model was implemented capturing relevant processes, as done previously.[6],[41] The compartments represent the blood, spleen, splanchnic organs, liver interstitial space, hepatocytes, and the rest of the body (ROB) vascular and extravascular spaces. The ROB compartment includes muscles, skin, bones, and fat among others. Details of model equations and physiological parameters values are reported in the Supporting Information, Sections 2, 3, and 5.\n(§2) Standard kinetic models used for MRI contrast agents generally describe the organs by using three compartments: plasma, interstitial, and intracellular spaces.[12],[42],[43] Gadoxetate distributes only in the extracellular space of all the organs; liver is the exception, where gadoxetate undergoes active uptake into the hepatocytes.[44] Therefore, in the gadoxetate PBPK model, the volume of all the compartments, except the blood and the liver, corresponded to the organ extracellular space, that in turn was considered to be composed of the blood within the organ and the interstitial space. For highly vascularized and perfused organs with fenestrated capillaries (e.g., liver), the exchange between the plasma and the interstitial space is generally considered to be fast.[12],[19] Therefore, for liver, spleen, and splanchnic compartments, the extracellular volumes were considered to be the sum of the blood within the organ and the interstitial space volumes. […] A permeability limitation between the vascular and interstitial space was, therefore, assumed for the ROB compartment, as shown in eq 5. [drawing 5] 5 cb, crob,v and crob,ev [μmol/L] are the gadoxetate concentration in blood and ROB vascular and extravascular compartments; Vrob,v and Vrob,ev [L] are the ROB vascular and extravascular compartment volumes, respectively; and PS [L/h] is the permeability surface product.\nTo describe the gadoxetate-active uptake into the hepatocytes, a permeability-limited liver model was used, as shown in eq 6. [drawing 6] 6 inputsplan [μmol/h] represent the venous input from the splanchnic organs, while inputart [μmol/h] is the input from the hepatic artery; cliv,extr and cliv,cell [μmol/L] are the drug concentrations in the extracellular liver (tissue blood plus interstitial space) and in the hepatocytes, respectively; Vliv,extr and Vliv,int [L] are the extracellular and hepatocytes liver volumes; Qh [L/h] is the liver blood flow; Kliv,extr-b is the extracellular liver to blood partition coefficient; CLactive and CLpassive [L/h] are the active and passive clearances across the hepatocytes cell membrane; CLbiliary [L/h] is the clearance representing the excretion from the hepatocytes into the bile; and fu,liv,cell is the gadoxetate fraction unbound in the hepatocytes (obtained from the in vitro generated data fu,cell). Recent PBPK studies of hepatic transporter substrates have used a 5-compartment liver model[45] and the use of this particular liver model was also explored in the current PBPK modeling.\nAll the parameters were initially obtained using literature values and in vitro experiments. Prospective transporter clearance IVIVE was performed with the aim of predicting the gadoxetate ΔR1 in blood, spleen, and liver after administration of gadoxetate alone (in the absence of an inhibitor). CLactive, CLpassive, and fu,liv,cell were obtained from the in vitro experimental values obtained in this study, as detailed in the section “Data Analysis and Quantitative Translation”. CLr was fixed to a literature value, as in Table 3. […]"}, "[2]": {"test": "Top-down PBPK model fitting to DCE-MRI ΔR1 data, gadoxetate administered alone", "format": "in vivo, rat", "description": "DCE–MRI data generated using the 3D Fast Low Angle Shot RF-spoiled gradient echo sequence (FLASH) protocol in male Wistar-Han rats were used for assessing the PBPK IVIVE performances and for obtaining some of the PBPK parameters within the bottom-up and top-down approaches, respectively. The DCE–MRI data were acquired in a multicenter study at two magnetic field strengths, 4.7 and 7 T. Gadoxetate was administered at a dose of 25 μmol/kg, either alone or 1 h after IV administration of 10 mg/kg rifampicin. When gadoxetate was administered alone (control arm), 43 profiles of blood, spleen, and liver measured at a field strength of 4.7 T and 52 profiles of blood, spleen, and liver measured at 7 T were available. In the case of gadoxetate administered with rifampicin, 7 blood, spleen, and liver profiles at a field strength equal to 4.7 T and 6 at 7 T were available. All gadoxetate DCE–MRI data and study protocols are detailed in a companion paper (Hines et al. in submission).\nThe measured quantity in DCE–MRI is ΔR1 (s^–1), the change of the water proton longitudinal relaxation rate, a magnetic property of the tissues, due to the presence of the contrast agent. In sufficiently homogeneous tissues, the tissue concentration of the contrast agent as a function of time, c(t), can be derived from ΔR1(t). The relationship between c(t) and ΔR1(t) depends on the physical interactions between the contrast agent molecules and the tissue.[39] For a given tissue τ, the relation between ΔR1,τ(t) and cτ(t) is generally considered to be linear, as in eq 4.[39],[40] [drawing 4] 4\nas §1\nas §2, with “product. […]” for “product.”"}, "[3]": {"details": "scaled from in vitro, 120 × 10^6 cells/g liver, 40 g liver/kg"}, "[4]": {"details": "fit to blood, spleen and liver ΔR1, gadoxetate alone, mean (CV %) of 1000 bootstrap samples"}, "[5]": {"details": "gadoxetate alone, blood data only, value (CV)"}, "[6]": {"details": "gadoxetate alone, blood, spleen, liver ΔR1, CLr also estimated, value (CV)"}},
  "note": "Values joined by “and” are separate entries in the source; they are usually repeats but may differ in a detail not shown here. Equal values may be shown once. Marks after values point to notes of the source that are not given here.",
  "data": [
    {"compound": "CCOc1ccc(C[C@@H](CN(CCN(CC(=O)[O-])CC(=O)[O-])CC(=O)[O-])N(CC(=O)[O-])CC(=O)[O-])cc1.[Gd+3].[H+].[H+]", "note": "[gadoxetate]", "values": [
      {"measurement": "CLbiliary, bottom-up scaled value", "setting": "[1]; Monte Carlo mean, value assumed equal to CLpassive", "value": "0.014 ^a^, ^c L/h"},
      {"measurement": "CLactive, bottom-up scaled value", "setting": "[1]; mean value calculated from the Monte Carlo analysis, rat 0.25 kg", "value": "0.23 ^a L/h"},
      {"measurement": "PS, bottom-up scaled value", "setting": "[1]; permeability surface product, Monte Carlo mean, value assumed equal to CLpassive", "value": "0.014 ^a^, ^c L/h"},
      {"measurement": "predicted in vivo active uptake clearance (CLactive,u,in vivo)", "setting": "[1]; [3]", "value": 14.7, "unit": "mL/min/kg body weight"},
      {"measurement": "predicted in vivo passive clearance (CLpassive,u,in vivo)", "setting": "[1]; [3]", "value": 0.93, "unit": "mL/min/kg body weight"},
      {"measurement": "CLpassive", "setting": "[1]; scaled from the mean in vitro value in Table 2, fixed in PBPK model", "value": 0.014, "unit": "L/h"},
      {"measurement": "CLactive, top-down estimate", "setting": "[2]; fit to blood, spleen and liver ΔR1, gadoxetate alone 25 μmol/kg, mean (CV %) of 1000 bootstrap samples", "value": "2.17 (11.5%) ^b L/h"},
      {"measurement": "CLbiliary, top-down estimate", "setting": "[2]; [4]", "value": "0.07 (3.2%) ^b L/h"},
      {"measurement": "PS, top-down estimate", "setting": "[2]; [4]", "value": "0.62 (6.3%) ^b L/h"},
      {"measurement": "CLactive, estimated only with ΔR1 blood data", "setting": "[2]; [5]", "value": "1.88 (23.2 %) L/h and 1.88 L/h"},
      {"measurement": "PS, estimated only with ΔR1 blood data", "setting": "[2]; [5]", "value": "1.92 (20.8 %) L/h and 1.92 L/h"},
      {"measurement": "CLactive, simultaneous estimation with CLr", "setting": "[2]; [6]", "value": "practically unidentifiable"},
      {"measurement": "CLbiliary, simultaneous estimation with CLr", "setting": "[2]; [6]", "value": "0.07 (2.6 %) L/h"},
      {"measurement": "PS, simultaneous estimation with CLr", "setting": "[2]; [6]", "value": "0.58 (8.3 %) L/h"},
      {"measurement": "CLactive, simultaneous estimation with CLr", "setting": "[2]; gadoxetate alone, blood, spleen, liver ΔR1, CLr also estimated, value (CV), listed as Gadoxetate", "value": "3.11 (>1000 %) L/h"},
      {"measurement": "CLr, estimated", "setting": "[2]; gadoxetate alone, blood, spleen, liver ΔR1, value (CV)", "value": "0.40 (24.6 %) L/h"}
    ]}
  ]
}
